Calls of active or inactive are those of the source. Residues, ends and D or L forms follow the SMILES beside them. *: point of attachment. Cbz = O=C(OCc1ccccc1)*
Legend:
[1] = target: T1, Caspase-4 (Homo sapiens) (UniProt P49662); experiment: Inhibition of human recombinant caspase4 upto 50 uM
T1 sequence (whole entry): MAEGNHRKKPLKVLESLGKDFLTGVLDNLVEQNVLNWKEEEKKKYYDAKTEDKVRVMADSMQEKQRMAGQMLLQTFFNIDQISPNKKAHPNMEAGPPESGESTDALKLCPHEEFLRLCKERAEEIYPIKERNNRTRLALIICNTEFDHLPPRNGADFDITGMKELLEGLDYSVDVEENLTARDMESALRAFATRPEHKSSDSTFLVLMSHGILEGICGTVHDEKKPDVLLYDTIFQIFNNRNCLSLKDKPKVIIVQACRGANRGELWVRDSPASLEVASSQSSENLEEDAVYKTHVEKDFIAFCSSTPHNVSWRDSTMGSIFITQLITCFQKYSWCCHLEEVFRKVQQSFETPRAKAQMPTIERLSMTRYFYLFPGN

[2] = target: T2, Caspase-2 (Homo sapiens) (UniProt P42575); experiment: Inhibition of human recombinant caspase2 upto 50 uM
T2 sequence (whole entry): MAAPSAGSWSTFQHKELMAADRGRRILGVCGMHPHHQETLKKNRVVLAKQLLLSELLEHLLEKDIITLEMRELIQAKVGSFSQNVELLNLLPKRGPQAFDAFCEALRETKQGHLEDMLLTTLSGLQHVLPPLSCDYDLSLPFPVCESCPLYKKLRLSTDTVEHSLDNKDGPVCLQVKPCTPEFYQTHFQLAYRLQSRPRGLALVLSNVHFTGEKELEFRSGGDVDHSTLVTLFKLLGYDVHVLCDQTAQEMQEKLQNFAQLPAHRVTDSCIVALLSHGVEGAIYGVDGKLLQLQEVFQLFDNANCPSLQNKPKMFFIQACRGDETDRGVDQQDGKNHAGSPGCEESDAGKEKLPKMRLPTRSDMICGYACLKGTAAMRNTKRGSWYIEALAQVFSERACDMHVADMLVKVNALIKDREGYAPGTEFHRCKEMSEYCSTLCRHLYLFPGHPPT

[3] = target: T3, Caspase-5 (Homo sapiens) (UniProt P51878); experiment: Inhibition of human recombinant caspase5 upto 50 uM
T3 sequence (whole entry): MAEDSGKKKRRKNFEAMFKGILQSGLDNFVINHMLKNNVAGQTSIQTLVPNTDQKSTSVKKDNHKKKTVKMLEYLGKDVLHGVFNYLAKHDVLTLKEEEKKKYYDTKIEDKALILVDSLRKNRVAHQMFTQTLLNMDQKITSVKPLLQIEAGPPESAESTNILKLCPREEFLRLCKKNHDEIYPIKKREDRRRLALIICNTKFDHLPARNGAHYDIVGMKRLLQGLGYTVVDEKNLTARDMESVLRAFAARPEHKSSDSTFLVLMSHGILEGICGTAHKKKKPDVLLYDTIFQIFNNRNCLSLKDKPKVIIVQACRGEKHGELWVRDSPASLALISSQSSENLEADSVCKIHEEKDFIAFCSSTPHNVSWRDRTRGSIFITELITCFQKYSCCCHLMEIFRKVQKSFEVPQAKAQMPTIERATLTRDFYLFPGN

[4] = target: Caspase-8 (Homo sapiens) (UniProt Q14790); experiment: Inhibition of human recombinant caspase8 upto 50 uM
Chain of Caspase-8 (Homo sapiens) (Q14790 217-374 limits assumed): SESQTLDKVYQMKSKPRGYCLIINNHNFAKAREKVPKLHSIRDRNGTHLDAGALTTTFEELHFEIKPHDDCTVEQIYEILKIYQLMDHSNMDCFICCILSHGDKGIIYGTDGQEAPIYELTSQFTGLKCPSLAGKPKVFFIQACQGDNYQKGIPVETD
Chain of Caspase-8 (Homo sapiens) (Q14790 385-479 limits assumed): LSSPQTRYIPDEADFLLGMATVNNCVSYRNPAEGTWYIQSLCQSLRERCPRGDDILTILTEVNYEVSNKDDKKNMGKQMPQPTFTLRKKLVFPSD

Measured: Activity

O=C(CN1C(=O)[C@@H](COC(=O)Nc2ccc(F)cc2)N=C(c2ccccc2)c2ccccc21)N[C@H]1CC(=O)OC1O (some centres undefined)
inactive: all assays above

O=C(CN1C(=O)[C@@H](COC(=O)Nc2cccc3ccccc23)N=C(c2ccccc2)c2ccccc21)N[C@H]1CC(=O)OC1O (some centres undefined)
inactive: all assays above

CC(C)[C@H](NC(=O)OCc1ccccc1)C(=O)N[C@H](C=O)Cc1ccccc1 (Cbz-Val-Phe-aldehyde)
inactive: all assays above

O=C(CN1C(=O)[C@@H](COC(=O)Nc2c(F)cc(F)cc2Br)N=C(c2ccccc2)c2ccccc21)N[C@H]1CC(=O)OC1O (some centres undefined)
inactive: all assays above

O=C(CN1C(=O)[C@H](COC(=O)Nc2ccc(Cl)cc2C(F)(F)F)N=C(c2ccccc2)c2ccccc21)N[C@H]1CC(=O)OC1O (some centres undefined)
inactive: all assays above

COc1ccc(NC(=O)OC[C@H]2N=C(c3ccccc3)c3ccccc3N(CC(=O)N[C@H]3CC(=O)OC3O)C2=O)cc1 (some centres undefined)
inactive: all assays above

Cc1cc(Cl)ccc1NC(=O)OC[C@H]1N=C(c2ccccc2)c2ccccc2N(CC(=O)N[C@H]2CC(=O)OC2O)C1=O (some centres undefined)
inactive: all assays above

O=C(CN1C(=O)[C@@H](COC(=O)Nc2ccccc2)N=C(c2ccccc2)c2ccccc21)N[C@H]1CC(=O)OC1O (some centres undefined)
inactive: all assays above

O=C(CN1C(=O)[C@@H](COC(=O)Nc2ccc(F)cc2F)N=C(c2ccccc2)c2ccccc21)N[C@H]1CC(=O)OC1O (some centres undefined)
inactive: all assays above

O=C(CN1C(=O)[C@@H](COC(=O)Nc2ccc(Cl)cc2)N=C(c2ccccc2)c2ccccc21)N[C@H]1CC(=O)OC1O (some centres undefined)
inactive: all assays above

O=C(CN1C(=O)[C@@H](COC(=O)Nc2ccc(Cl)cc2C(F)(F)F)N=C(c2ccccc2)c2ccccc21)N[C@H]1CC(=O)OC1O (some centres undefined)
inactive: all assays above
